Consider 17 compounds from US8853230B2, “Inhibitors of JAK” (Portola Pharmaceuticals, Inc., priority 2009, dated 2014).

Assay [1] has as its system IL4-induced phospho STAT6 formation in Ramos B lymphocytes. Nature of the assay: Inhibition of IL4-induced phospho STAT6 formation in Ramos B lymphocytes (flow cytometry). The class given is cell-based, human. As to conditions: Homo sapiens; for inhibition at 0.2 µM: 200 nM compound, read-out: % Inhibition of IL-4 Induced STAT6 Phosphorylation 200 nM; for inhibition at 1 µM: 1 μM compound, read-out: % Inhibition of IL-4 Induced STAT6 Phosphorylation 1 μM. Put shortly: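 Human Ramos B cells (0.5 million) pre-incubated 1 h at 37°C/5% CO2 with compound or DMSO, then stimulated with 1 ng/ml IL4 for 10 min. Cells were PFA-fixed, methanol-permeabilized and stained with Alexa-anti-phosphoSTAT6 (Y641); flow cytometry mean fluorescence gave percent inhibition of the IL4 signal.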

In assay [2] the target is Syk (Homo sapiens, UniProt P43405). Nature of the assay: Syk IC50 (Table 1; method not given). The class given is biochemical.
The target in assay [3] is T1, JAK3 (Homo sapiens, UniProt P52333).
T1 construct: 5 μl of catalytic domain recombinant Kinase enzyme+Tyr peptide substrate (Invitrogen, Calif.); purchased Invitrogen
T1 sequence (P52333 822-1111 limits assumed): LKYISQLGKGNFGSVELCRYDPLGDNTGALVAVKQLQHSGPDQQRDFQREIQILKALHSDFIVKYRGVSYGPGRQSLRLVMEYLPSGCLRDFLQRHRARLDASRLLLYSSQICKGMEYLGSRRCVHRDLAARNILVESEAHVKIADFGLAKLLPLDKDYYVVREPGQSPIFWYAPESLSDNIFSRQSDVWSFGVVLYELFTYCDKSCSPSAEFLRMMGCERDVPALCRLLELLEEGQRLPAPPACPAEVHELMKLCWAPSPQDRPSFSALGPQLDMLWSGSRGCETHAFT
Nature of the assay: Z'-LYTE kinase assay, JAK3 tyrosine phosphorylation activity. It counts as biochemical. Put shortly:
(§1)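 FRET-based Z′-LYTE format with recombinant catalytic-domain kinases and Tyr6 peptide substrate; compounds in 1% DMSO final, duplicate wells. Kinase reaction with ATP runs 1 h at room temperature, then protease development 1 h; fluorescence read at ex 400, em 445/520 nm. IC50 from 4-parameter logistic fit of percent phosphorylation versus uninhibited.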

In assay [4] the target is T2, JAK1 (Homo sapiens, UniProt P23458).
T2 construct: 5 μl of catalytic domain recombinant Kinase enzyme+Tyr peptide substrate (Invitrogen, Calif.); purchased Invitrogen
T2 sequence (P23458 875-1153 limits assumed): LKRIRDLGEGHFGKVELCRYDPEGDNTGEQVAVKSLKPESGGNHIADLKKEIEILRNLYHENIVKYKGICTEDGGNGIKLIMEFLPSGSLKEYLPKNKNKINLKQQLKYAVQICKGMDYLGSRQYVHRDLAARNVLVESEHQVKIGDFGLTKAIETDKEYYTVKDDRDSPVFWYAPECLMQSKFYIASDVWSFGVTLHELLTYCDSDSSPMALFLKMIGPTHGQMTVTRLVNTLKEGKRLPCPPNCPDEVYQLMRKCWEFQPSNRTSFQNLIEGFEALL
Nature of the assay: Z'-LYTE kinase assay, JAK1 tyrosine phosphorylation activity. The class given is biochemical. As to conditions: read-out: JAK 1 IC50. Put shortly:
as §1

The target in assay [5] is T3, JAK2 (Homo sapiens, UniProt O60674).
T3 construct: 5 μl of catalytic domain recombinant Kinase enzyme+Tyr peptide substrate (Invitrogen, Calif.); purchased Invitrogen
T3 sequence (O60674 849-1124 limits assumed): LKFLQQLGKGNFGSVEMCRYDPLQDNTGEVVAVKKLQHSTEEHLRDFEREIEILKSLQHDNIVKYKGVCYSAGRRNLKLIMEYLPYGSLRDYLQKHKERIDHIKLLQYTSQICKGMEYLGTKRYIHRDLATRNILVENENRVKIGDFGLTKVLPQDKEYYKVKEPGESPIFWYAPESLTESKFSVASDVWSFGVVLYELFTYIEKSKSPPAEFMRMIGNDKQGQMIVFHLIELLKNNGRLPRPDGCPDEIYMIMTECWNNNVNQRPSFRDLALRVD
Nature of the assay: Z'-LYTE kinase assay, JAK2 tyrosine phosphorylation activity. The class given is biochemical. The gist of the method: as §1

For assay [6], the target named is T4, TYK2 (Homo sapiens, UniProt P29597).
T4 construct: 5 μl of catalytic domain recombinant Kinase enzyme+Tyr peptide substrate (Invitrogen, Calif.); purchased Invitrogen
T4 sequence (P29597 897-1176 limits assumed): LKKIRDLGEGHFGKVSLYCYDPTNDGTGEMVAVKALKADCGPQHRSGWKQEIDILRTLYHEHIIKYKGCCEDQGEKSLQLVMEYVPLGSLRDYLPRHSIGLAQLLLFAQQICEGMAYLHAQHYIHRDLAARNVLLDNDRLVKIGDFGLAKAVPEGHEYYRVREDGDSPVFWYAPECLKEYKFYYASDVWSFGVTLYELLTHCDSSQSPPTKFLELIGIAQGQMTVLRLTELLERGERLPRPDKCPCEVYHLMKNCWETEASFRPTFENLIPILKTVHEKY
Nature of the assay: Z'-LYTE kinase assay, TYK2 tyrosine phosphorylation activity. It counts as biochemical. Put shortly:
as §1

Each structure is given as a SMILES string.

As for `CC[C@H](C)[C@@H](CO)Nc1nc(Nc2cccc(NC(C)=O)c2)ncc1C(N)=O` [Example 73, 2-(3-acetamidophenylamino)-4-((2S,3S)-1-hydroxy-3-methylpentan-2-ylamino)pyrimidine-5-carboxamide], the inhibition at 0.2 µM in assay [1] turned out to be 17.1%. Also, the inhibition at 1 µM in assay [1] came to 55.6%. Besides, the 50% inhibitory concentration (IC50) in assay [2] is > 1000 nM; in assay [3], 1 to 10 nM; in assay [4] it was 10 to 100 nM; in assay [5] it was 10 to 100 nM; in assay [6] it was 1 to 10 nM.
On to `COC(=O)Nc1cc(Nc2ncc(C(N)=O)c(NCc3ccccc3)n2)ccc1Cl` [Example 32, methyl 5-(4-(benzylamino)-5-carbamoylpyrimidin-2-ylamino)-2-chlorophenylcarbamate], for which, in assay [1], the inhibition at 0.2 µM was 27%. Besides, the inhibition at 1 µM in assay [1] worked out at 65%. For the same compound, the IC50 was > 1000 nM in assay [2]; 10 to 100 nM in assay [3]; 100 to 1000 nM in assay [4]; 100 to 1000 nM in assay [5]; 10 to 100 nM in assay [6].
As for `CC(=O)Nc1cccc(Nc2ncc(C(N)=O)c(NCc3ccccc3)n2)c1` [Example 17, 2-(3-acetamidophenylamino)-4-(benzylamino)pyrimidine-5-carboxamide], the inhibition at 0.2 µM in assay [1] stood at 34%. The inhibition at 1 µM in assay [1] amounted to 73.7%. Further, the half-inhibitory concentration (IC50) in assay [2] was 100 to 1000 nM; in assay [3], < 1 nM; in assay [4] it was 10 to 100 nM; in assay [5], 1 to 10 nM; in assay [6] it was 1 to 10 nM.
Turning to `CNC(=O)Nc1cc(Nc2ncc(C(N)=O)c(NCc3ccccc3)n2)ccc1Cl` [Example 131, 4-(benzylamino)-2-(4-chloro-3-(3-methylureido)phenylamino)pyrimidine-5-carboxamide], the inhibition at 0.2 µM in assay [1] worked out at 0.3%. Besides, the inhibition at 1 µM in assay [1] is 4.3%. Also, the IC50 is > 1000 nM in assay [2]; 1 to 10 nM in assay [3]; > 1000 nM in assay [4]; 100 to 1000 nM in assay [5]; 10 to 100 nM in assay [6].
With `CNC(=O)Nc1cccc(Nc2ncc(C(N)=O)c(NCc3ccccc3)n2)c1` [Example 39, 4-(benzylamino)-2-(3-(3-methylureido)phenylamino)pyrimidine-5-carboxamide], in assay [1], the inhibition at 0.2 µM was 15%. The inhibition at 1 µM in assay [1] was found to be 60%. For the same compound, the 50% inhibitory concentration (IC50) in assay [2] is > 1000 nM; in assay [3], 1 to 10 nM; in assay [4], 10 to 100 nM; in assay [5], 10 to 100 nM; in assay [6] it was 1 to 10 nM.
`NC(=O)c1cnc(Nc2ccc(Cl)c(NC(=O)N3CCCC3)c2)nc1NCc1ccccc1` [Example 130, 4-(benzylamino)-2-(4-chloro-3-(pyrrolidine-1-carboxamido)phenylamino)pyrimidine-5-carboxamide]: in assay [1], the inhibition at 0.2 µM amounted to 0.7%. Also, the inhibition at 1 µM in assay [1] came to 19%. Also, the IC50 was > 1000 nM in assay [2]; 1 to 10 nM in assay [3]; 100 to 1000 nM in assay [4]; 100 to 1000 nM in assay [5]; 10 to 100 nM in assay [6].
As for `NC(=O)c1cnc(Nc2cccc(NC(=O)C3CCC3)c2)nc1NC1CCCC1` [Example 20, 2-(3-(cyclobutanecarboxamido)phenylamino)-4-(cyclopentylamino)pyrimidine-5-carboxamide], the inhibition at 0.2 µM in assay [1] was determined as 41.3%. The inhibition at 1 µM in assay [1] is 89.6%. In addition, the IC50 in assay [2] was 100 to 1000 nM; in assay [3], 1 to 10 nM; in assay [4], 10 to 100 nM; in assay [5], 10 to 100 nM; in assay [6], 1 to 10 nM.
On to `COCC(=O)Nc1cccc(Nc2ncc(C(N)=O)c(N[C@H](C)c3ccccc3)n2)c1` [Example 47, (R)-2-(3-(2-methoxyacetamido)phenylamino)-4-(1-phenylethylamino)pyrimidine-5-carboxamide], for which the inhibition at 0.2 µM in assay [1] came out at 25.3%. The inhibition at 1 µM in assay [1] is 77.7%. Moreover, the concentration for half-maximal inhibition (IC50) in assay [2] is > 1000 nM; in assay [3] it was 1 to 10 nM; in assay [4], 100 to 1000 nM; in assay [5], 10 to 100 nM; in assay [6] it was 10 to 100 nM.
As to `NC(=O)c1cnc(Nc2cccc(NC(=O)C3CC3)c2)nc1NCc1ccccc1` [Example 26, 4-(benzylamino)-2-(3-(cyclopropanecarboxamido)phenylamino)pyrimidine-5-carboxamide], the inhibition at 0.2 µM in assay [1] stood at 7.3%. For the same compound, in assay [1], the inhibition at 1 µM is 45.7%. Moreover, the IC50 is > 1000 nM in assay [2]; 1 to 10 nM in assay [3]; 100 to 1000 nM in assay [4]; 10 to 100 nM in assay [5]; 1 to 10 nM in assay [6].
Turning to `CC(=O)Nc1cccc(Nc2ncc(C(N)=O)c(NC3CCCCC3)n2)c1` [Example 52, 2-(3-acetamidophenylamino)-4-(cyclohexylamino)pyrimidine-5-carboxamide], in assay [1], the inhibition at 0.2 µM stood at 63%. In addition, the inhibition at 1 µM in assay [1] was determined as 94%. The IC50 lay within 100 to 1000 nM in assay [2]; 1 to 10 nM in assay [3]; 10 to 100 nM in assay [4]; 10 to 100 nM in assay [5]; 1 to 10 nM in assay [6].
In the case of `CC(=O)Nc1cccc(Nc2ncc(C(N)=O)c(NCC3CCCN(C(N)=O)C3)n2)c1` (centres unmarked) [Example 117, 2-(3-acetamidophenylamino)-4-((1-carbamoylpiperidin-3-yl)methylamino)pyrimidine-5-carboxamide], the inhibition at 0.2 µM in assay [1] was determined as 4.5%. Moreover, the inhibition at 1 µM in assay [1] came out at 29.5%. The IC50 is 100 to 1000 nM in assay [2]; < 1 nM in assay [3]; 10 to 100 nM in assay [4]; 1 to 10 nM in assay [5]; 1 to 10 nM in assay [6].
As to `CC(=O)Nc1cccc(Nc2ncc(C(N)=O)c(NCC3CCCN(C(=O)OCc4ccccc4)C3)n2)c1` (centres unmarked) [Example 115, Benzyl 3-((2-(3-acetamidophenylamino)-5-carbamoylpyrimidin-4-ylamino)methyl)piperidine-1-carboxylate], the inhibition at 0.2 µM in assay [1] was 12.3%. Also, in assay [1], the inhibition at 1 µM stood at 53.7%. For the same compound, the IC50 is > 1000 nM in assay [2]; 10 to 100 nM in assay [3]; 100 to 1000 nM in assay [4]; 100 to 1000 nM in assay [5]; 100 to 1000 nM in assay [6].
Consider `CC(C)OC(=O)Nc1cccc(Nc2ncc(C(N)=O)c(NCc3ccccc3)n2)c1` [Example 41, isopropyl 3-(4-(benzylamino)-5-carbamoylpyrimidin-2-ylamino)phenylcarbamate], for which, in assay [1], the inhibition at 0.2 µM came out at 50.7%. For the same compound, the inhibition at 1 µM in assay [1] was 95.3%. The IC50 in assay [2] is > 1000 nM; in assay [3], 10 to 100 nM; in assay [4] it was > 1000 nM; in assay [5], 100 to 1000 nM; in assay [6] it was 10 to 100 nM.
`CCOC(=O)Nc1cccc(Nc2ncc(C(N)=O)c(NCc3ccccc3)n2)c1` [Example 31, ethyl 3-(4-(benzylamino)-5-carbamoylpyrimidin-2-ylamino)phenylcarbamate]: the inhibition at 0.2 µM in assay [1] is 13.7%. Moreover, in assay [1], the inhibition at 1 µM amounted to 37%. In addition, the IC50 in assay [2] was > 1000 nM; in assay [3] it was 1 to 10 nM; in assay [4], 100 to 1000 nM; in assay [5] it was 100 to 1000 nM; in assay [6], 10 to 100 nM.
As for `NC(=O)Nc1cccc(Nc2ncc(C(N)=O)c(NCc3ccccc3)n2)c1` [Example 38, 4-(benzylamino)-2-(3-ureidophenylamino)pyrimidine-5-carboxamide], the inhibition at 0.2 µM in assay [1] was 41.3%. Also, the inhibition at 1 µM in assay [1] was 82.7%. The IC50 lay in the range of 100 to 1000 nM in assay [2]; 1 to 10 nM in assay [3]; 10 to 100 nM in assay [4]; 10 to 100 nM in assay [5]; 1 to 10 nM in assay [6].
`NC(=O)c1cnc(Nc2cccc(NC(=O)C3CCC3)c2)nc1NCc1ccccc1` [Example 27, 4-(benzylamino)-2-(3-(cyclobutanecarboxamido)phenylamino)pyrimidine-5-carboxamide]: the inhibition at 0.2 µM in assay [1] is 7%. Moreover, in assay [1], the inhibition at 1 µM came out at 54.3%. Also, the IC50 was > 1000 nM in assay [2]; 1 to 10 nM in assay [3]; 100 to 1000 nM in assay [4]; 10 to 100 nM in assay [5]; 10 to 100 nM in assay [6].
In the case of `CCC(=O)Nc1cccc(Nc2ncc(C(N)=O)c(NCc3ccccc3)n2)c1` [Example 28, 4-(benzylamino)-2-(3-propionamidophenylamino)pyrimidine-5-carboxamide], the inhibition at 0.2 µM in assay [1] turned out to be 32%. The inhibition at 1 µM in assay [1] is 77.7%. The IC50 was > 1000 nM in assay [2]; 1 to 10 nM in assay [3]; 10 to 100 nM in assay [4]; 10 to 100 nM in assay [5]; 1 to 10 nM in assay [6].
